Assay: spectral absorption of the colored coupler in methanol
Assay type: physicochemical
Description: 10.1 g of compound c synthesized by the method described in U.S. Patent 4,138,258 was dissolved in 60 ml of N,N-dimethylformamide and 60 ml of methyl cellosolve. While cooling the resulting solution with ice, 4.3 ml of concentrated hydrochloric acid was added thereto and a solution of 1.84 g of sodium nitrite in 5 ml of water was added dropwise thereto to prepare a diazonium solution. 60 ml of methyl cellosolve and 20 ml of water were added to 7.8 g of the compound b and 8.2 g of sodium acetate. While stirring the resulting solution under ice cooling, the above diazonium solution was added dropwise thereto. After dropwise addition, the mixture was stirred for one hour and then at room temperature for 2 hours. The precipitated crystal was recovered by filtration, washed with water, dried and dispersed in 500 ml of methanol. The dispersion was heated to reflux for one hour and then allowed to stand to cool it. The crystal was recovered by filtration, washed with methanol and dried to give 13.6 g of the desired coupler (1) as a red crystal with a melting point of 269 to 272°C (decomposition). The structure of the compound was confirmed by ¹HNMR spectrum, mass spectrum and elemental analysis.
75 ml of methyl cellosolve and 26 ml of water were added to 10.1 g of the compound b and 10.7 g of sodium acetate. While stirring the resulting solution under ice cooling, the above diazonium solution was added dropwise thereto. After dropwise addition, the mixture was stirred for one hour and then at room temperature for 2 hours. The precipitated crystal was recovered by filtration and dispersed in 200 ml of methanol. A solution of 2.2 g of sodium hydroxide in 10 ml of water was added dropwise thereto. The mixture was stirred for 3 hours and neutralized with concentrated hydrochloric acid. The precipitated crystal was washed with water and then methanol and dried. The resulting crude crystal was purified from hot methanol in the same manner as in Synthesis Example 1 to give 14.8 g of the desired coupler (3) with a melting point of 246 to 251°C (decomposition). […]

CCCCCCCCC(CCCCCC)COCCCNC(=O)c1cc(OCCOc2ccc(N=Nc3c(C)c(C#N)c(=O)n(-c4ccccc4C(=O)O)c3O)cc2)c2ccccc2c1O (stereo not drawn) [(22)]
spectral absorption characteristics as a yellow colored coupler: good
maximum absorption wavelength (in methanol): 458.2 nm
molecular extinction coefficient (in methanol): 42800

— EP0423727B1, “Silver halide color photographic material containing colored coupler” (FUJI PHOTO FILM CO., LTD., priority 1989, dated 1991)
